In experiment [1] the test system is Spodoptera litura. Kind of experiment: Antifeedant activity against Spodoptera litura third instar larvae by choice leaf disk assay. In kind it is functional. Also on record: unit not given here.
The subject of experiment [2] is Spodoptera litura. Description: Antifeedant activity against Spodoptera litura third instar larvae assessed as feeding index at 1000 ppm by choice leaf disk assay. The format is functional.

In the experiment with Spodoptera litura [1], `CC(C)[C@@]1(O)[C@@H](O)[C@@]2(O)[C@@]3(C)C[C@]4(O)O[C@@]5([C@H](O)[C@@H](C)CC[C@]35O)[C@@]2(O)[C@]14C` [RYANODOL] returned a logEC50 of 2.18.
`C/C=C(\C)C(=O)O[C@H]1C[C@@H](OC(C)=O)[C@@]2(C(=O)OC)CO[C@H]3[C@@H](O)[C@@](C)([C@]45O[C@@]4(C)[C@@H]4C[C@H]5O[C@@H]5OC=C[C@@]54O)[C@H]4[C@]1(CO[C@]4(O)C(=O)OC)[C@@H]32` [AZADIRACHTIN A]: in the experiment with Spodoptera litura [1], the logEC50 amounted to 0.25.
Compound `CC(C)[C@@]1(O)C[C@@]2(O)[C@@]3(C)C[C@]4(O)O[C@@]5([C@H](O)[C@@H](C)CC[C@]35O)[C@@]2(O)[C@@]41C` [CINNZEYLANOL] registered a logEC50 in the experiment on Spodoptera litura [1] of 1.93.
`CC(C)[C@@]1(O)C[C@@]2(O)[C@]3(C)C[C@]4(O)O[C@H]([C@@]5(O)[C@@H](C)CC[C@]53O)[C@@]2(O)[C@]41C` [PERSEANOL]: the Activity in the experiment on Spodoptera litura [2] was 11.43. The logEC50 in the experiment on Spodoptera litura [1] was 2.23.
Take `CC(C)[C@@H]1C[C@@H]2[C@@]3(O)[C@@H]4O[C@@](O)(C[C@]2(C)[C@]2(O)CC[C@H](C)[C@H]42)[C@]13C` [INDICOL]: the Activity in the experiment with Spodoptera litura [2] came out at 49.39. The compound also came in with a logEC50 in the experiment with Spodoptera litura [1] above 3.
For `CC(C)[C@@]1(O)C[C@@]2(O)[C@]3(C)C[C@]4(O)O[C@H]([C@H]5[C@@H](C)CC[C@]53O)[C@@]2(O)[C@]41C` [VIGNATICOL], the Activity with Spodoptera litura [2] is on record as 12.57. Further, the logEC50 in the experiment on Spodoptera litura [1] was determined as 1.97.
`CC(C)[C@@]1(O)[C@@H](OC(=O)c2cc[nH]c2)[C@@]2(O)[C@]3(C)C[C@@]4(O)O[C@@]5([C@H](O)[C@@H](C)CC[C@]35O)[C@@]2(O)[C@@]41C` [RYANODINE]: the logEC50 in the experiment with Spodoptera litura [1] stood at 1.15.

These data come from ChEMBL document CHEMBL1158331, “Insect Antifeedant Isoryanodane Diterpenes from Persea indica” (1997).
